In the Kinase Knowledgebase extract (Sharma et al. 2016):

Biological target: MAPK14 (human) (UniProt Q16539)
Experiment: Inhibition of MAPK14 Kinase Activity
Settings: for inhibition: concentration not given here

Chain of MAPK14 (human) (Q16539 whole entry, looked up): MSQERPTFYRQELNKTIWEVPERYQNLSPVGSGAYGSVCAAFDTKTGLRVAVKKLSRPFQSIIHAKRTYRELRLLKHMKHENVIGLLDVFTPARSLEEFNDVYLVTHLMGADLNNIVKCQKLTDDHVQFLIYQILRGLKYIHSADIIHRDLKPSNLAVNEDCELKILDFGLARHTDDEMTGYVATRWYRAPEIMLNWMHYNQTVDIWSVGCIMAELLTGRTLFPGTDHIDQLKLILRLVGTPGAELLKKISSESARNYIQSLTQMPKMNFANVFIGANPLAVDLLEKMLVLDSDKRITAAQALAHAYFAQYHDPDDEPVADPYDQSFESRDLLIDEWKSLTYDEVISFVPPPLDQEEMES

Compound	IC50 [µM]	inhibition [%]
COC(=O)CN1CCN(C(=O)c2nc(C(C)(C)C)sc2NC(=O)Nc2cccc(Cl)c2Cl)C(C)(C)C1=O	< 5	–
CC(C)(C)c1cc(C(=O)N2CCNC(=O)CC2)c(NC(=O)Nc2ccc(Cl)c(Cl)c2Cl)s1	< 5	–
CC(C)(C)c1nc(C(=O)N2CCC(=O)N(CCC(N)=O)CC2)c(NC(=O)Nc2cccc(Cl)c2Cl)s1	< 5	–
COCOCCN1CCN(C(=O)c2cc(C(C)(C)C)sc2NC(=O)Nc2cccc(Cl)c2Cl)CCC1=O	–	76 to 100
CC(C)(C)c1cc(C(=O)N2CCN(CCC(=O)O)C(=O)C2(C)C)c(NC(=O)Nc2cccc(Cl)c2Cl)s1	< 5	–
CC(=O)NC1CCCN(C(=O)c2cc(C(C)(C)C)sc2NC(=O)Nc2cccc(Cl)c2Cl)C1 (configuration not stated)	< 5	–
CC(C)(C)c1cc(NC(=O)Nc2ccc(F)c(Cl)c2Cl)c(C(=O)N2CCNC(=O)C2(C)C)o1	< 5	–
CC(C)(C)c1cc(NC(=O)Nc2cccc(Cl)c2Cl)c(C(=O)N2CCNC(=O)CC2)[nH]1	< 5	–
CN(C)CCN1CCN(C(=O)c2sc(C(C)(C)C)cc2NC(=O)Nc2ccc(F)c(Cl)c2Cl)CCC1=O	< 5	–
COC(=O)CCN1CCN(C(=O)c2cc(C(C)(C)C)sc2NC(=O)Nc2cccc(Cl)c2Cl)C(C)(C)C1=O	< 5	–
CC(C)(C)c1cc(C(=O)N2CCNS(=O)(=O)CC2)c(NC(=O)Nc2ccc3ocnc3c2)s1	–	76 to 100
CN(C)CCNC(=O)CN1CCN(C(=O)c2sc(C(C)(C)C)cc2NC(=O)Nc2cccc(Cl)c2Cl)C(C)(C)C1=O	< 5	–
CC(C)(C)c1nc(C(=O)N2CCNC(=O)CC2)c(NC(=O)Nc2cccc(Cl)c2Cl)s1	< 5	–
COc1ccc(NC(=O)Nc2sc(C(C)(C)C)cc2C(=O)N2CCNC(=O)CC2)cc1Cl	–	76 to 100
CN(C)CCN1CCN(C(=O)c2cc(C(C)(C)C)sc2NC(=O)Nc2cccc(Cl)c2Cl)CC(C)(C)C1=O	< 5	–
CCC1(C)C(=O)N(CCN(C)C)CCN1C(=O)c1cc(C(C)(C)C)sc1NC(=O)Nc1ccc(F)c(Cl)c1Cl (configuration not stated)	< 5	–
CC(C)(C)c1cc(NC(=O)Nc2ccc(F)c(F)c2Cl)c(C(=O)N2CCNC(=O)C2(C)CCO)s1 (configuration not stated)	< 5	–
